One series relates to CYP3A4. The conditions noted are these: cited from earlier work.
The conditions of series [1]: cited from earlier work.
The conditions of series [2]: oral; cited from earlier work.
The procedure of series [3]: 1 gram mole equivalent of (S)-2,6-diaminohexanoic acid is added to the above ethyl acetate solution and stirred at ambient room temperature.

Results on four compounds are retold here after patent US20080200533A1, “Drug or Pharmaceutical Compounds and a Preparation Thereof” (priority 2005, published 2008).

Where two headings read alike, the source gives them in different places.

With `CC(C)c1c(C(=O)Nc2ccccc2)c(-c2ccccc2)c(-c2ccc(F)cc2)n1CC[C@@H]1C[C@@H](O)CC(=O)O1` [atorvastatin lactone], the “affinity to CYP3A4 compared with the acid” value in the series with CYP3A4 was “significantly higher affinity”. In the series on CYP3A4 (human liver microsomes), the “CYP-dependent metabolism to ortho-hydroxy metabolite, compared with atorvastatin acid” value is reported as 20 fold and the “CYP-dependent metabolism to para-hydroxy metabolite, compared with atorvastatin acid” value is 83 fold.
For `CC[C@H](CC[C@@H](C)[C@H]1CC[C@H]2[C@@H]3CC=C4C[C@@H](O)CC[C@]4(C)[C@H]3CC[C@]12C)C(C)C` [beta sitosterol], the “beta sitosterol soluble in triolein oil” value is recorded as 1.1% in series [1] (linked as an ester to decanoic acid), 0.6% in series [1] (linked as an ester to lauric acid) and 0.1% in series [1] (linked as an ester to palmitic acid).
Regarding `CC(C)c1c(C(=O)Nc2ccccc2)c(-c2ccccc2)c(-c2ccc(F)cc2)n1CC[C@@H](O)C[C@@H](O)CC(=O)O` (relative stereo) [atorvastatin, [R—(R*,R*)]-2-(4-fluorophenyl)-β,δ-dihydroxy-5-((1-methylethyl)-3-phenyl-4-[(phenylamino)-carbonyl]-1H-pyrrole-1-heptanoic acid], the “orally administered drug absorbed from the intestine” value in series [2] is recorded as “about 30%”.
Take `CC(C)c1nc(N(C)S(C)(=O)=O)nc(-c2ccc(F)cc2)c1/C=C/[C@@H](O)C[C@@H](O)CC(=O)O` [Rosuvastatin acid]: the “solubility in water (in words)” value in series [3] is “water insoluble”.
